Structures are written as SMILES.

Holding throughout (type): physicochemical
A short description of data set [1]: Comparative homogeneity test in vegetable oil. The conditions noted are these: added to 1 kg of vegetable oil, mixed for 5 minutes, continuous visual inspection. As for the experimental part:
Comparative homogeneity test of structured particulate Folic Acid with non-structured active particulate component: 1. 10 milligrams of non-structured active particulate component Folic Acid is added to 1 kg of vegetable oil and 40 milligrams of structured particulate Folic Acid (25%) to another 1 kg of vegetable oil. 2. Each sample is mixed for 5 minutes with continuous visual inspection for homogeneity.

The nature of data set [2]: Mean weight diameter by screen analysis. The following applies: weight fraction at screen multiplied by screen opening, summed for all screen sizes. How it is done:
Folic acid is used as the active component It has a mean weight diameter of 246 microns and a loose bulk density of 0.2 g/cc. The mean weight diameters is calculated as follows: weight fraction at screen multiplied by screen opening (microns), summed for all screen sizes.

The nature of a further data set: Loose bulk density. From the text: Loose bulk density being measured by measuring the volume of a known mass powder sample, that has passed through a screen into a gradulated cylinder. The procedure is described in USP<616<Bulk Density and Tapped Density.

On to `Nc1nc2ncc(CNc3ccc(C(=O)N[C@@H](CCC(=O)O)C(=O)O)cc3)nc2c(=O)[nH]1` [Folic acid], for which the “homogeneity / dispersion by visual inspection” value in data set [1] is “clumps together and sticks to the container walls”. The compound also came in with a mean weight diameter in data set [2] of 246 microns. Moreover, in the data set “Loose bulk density”, the loose bulk density is 0.2 g/cc.

(Values after US6773733B2, “Structured particulate systems” (Loders Croklaan USA LLC, priority 2001, dated 2004).)
